Numbers after ± are expanded uncertainties.
Assays:
[1] = 101.33 kPa, Liquid
[2] = xn = mol fraction of the nth substance listed; details: 101.3 kPa, Liquid

## ClC(Cl)(Cl)Cl [tetrachloromethane]
[1]; 303.15 K
  mass density: 1574.78 ± 1.4 kg/m3
  viscosity: 0.852 ± 0.014 mPa·s
[1]; 313.15 K
  mass density: 1555.02 ± 1.4 kg/m3
  viscosity: 0.76 ± 0.013 mPa·s

## O=[N+]([O-])c1ccccc1 [nitrobenzene]
[1]; 303.15 K
  mass density: 1193.4 ± 0.63 kg/m3
  viscosity: 1.617 ± 0.025 mPa·s

## C1COCCO1 [1,4-dioxane]
[1]; 303.15 K
  mass density: 1022.3 ± 0.3 kg/m3
  viscosity: 1.086 ± 0.018 mPa·s

## CCC(C)=O [butanone]
[1]; 303.15 K
  mass density: 799.69 ± 0.61 kg/m3
  viscosity: 0.365 ± 0.007 mPa·s

## Clc1ccccc1 [chlorobenzene]
[1]; 303.15 K
  mass density: 1095.49 ± 0.45 kg/m3
  viscosity: 0.718 ± 0.012 mPa·s

## ClC(Cl)Cl [trichloromethane]
[1]; 303.15 K
  mass density: 1470.64 ± 1.2 kg/m3
  viscosity: 0.52 ± 0.009 mPa·s
[1]; 313.15 K
  mass density: 1448.43 ± 1.1 kg/m3
  viscosity: 0.471 ± 0.009 mPa·s

## CCCNCCC [dipropylamine]
[1]; 303.15 K
  mass density: 731.21 ± 0.8 kg/m3
  viscosity: 0.512 ± 0.01 mPa·s
[1]; 313.15 K
  mass density: 726.15 ± 3 kg/m3
  viscosity: 0.423 ± 0.008 mPa·s

## CCCCOC(C)=O [butyl ethanoate]
[1]; 303.15 K
  mass density: 871.28 ± 0.48 kg/m3
  viscosity: 0.644 ± 0.011 mPa·s

## CCCCNCCCC [dibutylamine]
[1]; 303.15 K
  mass density: 752.28 ± 0.77 kg/m3
  viscosity: 0.758 ± 0.013 mPa·s
[1]; 313.15 K
  mass density: 743.44 ± 0.78 kg/m3
  viscosity: 0.665 ± 0.012 mPa·s

## CCCCN [1-butanamine]
[1]; 303.15 K
  mass density: 728.65 ± 0.81 kg/m3
  viscosity: 0.444 ± 0.009 mPa·s
[1]; 313.15 K
  mass density: 719.17 ± 0.82 kg/m3
  viscosity: 0.393 ± 0.008 mPa·s

## CCCN [propan-1-amine]
[1]; 303.15 K
  mass density: 706.1 ± 0.84 kg/m3
  viscosity: 0.353 ± 0.007 mPa·s
[1]; 313.15 K
  mass density: 696.04 ± 0.86 kg/m3
  viscosity: 0.313 ± 0.007 mPa·s

## CCCN(CCC)CCC [tripropylamine]
[1]; 303.15 K
  mass density: 749.15 ± 0.78 kg/m3
  viscosity: 0.598 ± 0.011 mPa·s
[1]; 313.15 K
  mass density: 740.41 ± 0.79 kg/m3
  viscosity: 0.538 ± 0.01 mPa·s

## CCCCN(CCCC)CCCC [tributylamine]
[1]; 303.15 K
  mass density: 770.21 ± 0.74 kg/m3
  viscosity: 1.167 ± 0.02 mPa·s
[1]; 313.15 K
  mass density: 763.11 ± 0.75 kg/m3
  viscosity: 0.97 ± 0.017 mPa·s

## CCN(CC)CC [triethylamine]
[1]; 303.15 K
  mass density: 718.44 ± 0.82 kg/m3
  viscosity: 0.33 ± 0.007 mPa·s

## CCOC(C)=O [ethyl acetate]
[1]; 303.15 K
  mass density: 888.42 ± 0.45 kg/m3
  viscosity: 0.399 ± 0.008 mPa·s

## CCCN(CCC)CCC [tripropylamine] + ClC(Cl)(Cl)Cl
[2]; 303.15 K, x1 = 0.0103
  mass density: 1558.08 ± 1.5 kg/m3
  viscosity: 0.848 ± 0.012 mPa·s
[2]; 303.15 K, x1 = 0.0203
  mass density: 1542.01 ± 1.5 kg/m3
  viscosity: 0.84 ± 0.012 mPa·s
[2]; 303.15 K, x1 = 0.0304
  mass density: 1526.35 ± 1.4 kg/m3
  viscosity: 0.829 ± 0.011 mPa·s
[2]; 303.15 K, x1 = 0.0398
  mass density: 1511.85 ± 1.4 kg/m3
  viscosity: 0.819 ± 0.011 mPa·s
[2]; 303.15 K, x1 = 0.0497
  mass density: 1496.93 ± 1.4 kg/m3
  viscosity: 0.811 ± 0.011 mPa·s
[2]; 303.15 K, x1 = 0.0606
  mass density: 1480.86 ± 1.4 kg/m3
  viscosity: 0.802 ± 0.011 mPa·s
[2]; 303.15 K, x1 = 0.0695
  mass density: 1468.02 ± 1.3 kg/m3
  viscosity: 0.795 ± 0.011 mPa·s
[2]; 303.15 K, x1 = 0.0786
  mass density: 1455.03 ± 1.3 kg/m3
  viscosity: 0.788 ± 0.011 mPa·s
[2]; 303.15 K, x1 = 0.0893
  mass density: 1440.17 ± 1.3 kg/m3
  viscosity: 0.78 ± 0.011 mPa·s
[2]; 313.15 K, x1 = 0.0103
  mass density: 1538.54 ± 1.5 kg/m3
  viscosity: 0.754 ± 0.011 mPa·s
[2]; 313.15 K, x1 = 0.0203
  mass density: 1522.71 ± 1.4 kg/m3
  viscosity: 0.747 ± 0.01 mPa·s
[2]; 313.15 K, x1 = 0.0304
  mass density: 1507.24 ± 1.4 kg/m3
  viscosity: 0.739 ± 0.01 mPa·s
[2]; 313.15 K, x1 = 0.0398
  mass density: 1492.94 ± 1.4 kg/m3
  viscosity: 0.733 ± 0.01 mPa·s
[2]; 313.15 K, x1 = 0.0497
  mass density: 1478.28 ± 1.4 kg/m3
  viscosity: 0.726 ± 0.01 mPa·s
[2]; 313.15 K, x1 = 0.0606
  mass density: 1462.46 ± 1.3 kg/m3
  viscosity: 0.718 ± 0.01 mPa·s
[2]; 313.15 K, x1 = 0.0695
  mass density: 1449.76 ± 1.3 kg/m3
  viscosity: 0.712 ± 0.01 mPa·s
[2]; 313.15 K, x1 = 0.0786
  mass density: 1437.01 ± 1.3 kg/m3
  viscosity: 0.706 ± 0.01 mPa·s
[2]; 313.15 K, x1 = 0.0893
  mass density: 1422.3 ± 1.2 kg/m3
  viscosity: 0.699 ± 0.01 mPa·s

From the NIST ThermoML archive (doi:10.1016/j.tca.2004.08.013)
